Laboratory results published in ChEMBL document CHEMBL5131489, “Linotrins: Omega-3 oxylipins featuring an E,Z,E conjugated triene motif are present in the plant kingdom and alleviate inflammation in LPS-challenged microglial cells” (2022).
Activity calls are given as the source filed them. The rule behind the calls is not given here.

Experiments:
[1] = tested on: BV-2; test: Antiinflammatory activity against LPS-stimulated C57BL/6 mouse microglial BV-2 cells assessed as reduction in cellular content of TNF-alpha level at 30 umol/L pretreated for 3 hrs followed by LPS stimulation and measured after 6 hrs by AlphaLISA assay; format: functional, cell-based; conditions: dose 30.0 µmol/L, time 9.0 hrs
[2] = tested on: BV-2; test: Antiinflammatory activity against LPS-stimulated C57BL/6 mouse microglial BV-2 cells assessed as reduction in cellular content of IL-1 beta level at 30 umol/L pretreated for 3 hrs followed by LPS stimulation and measured after 24 hrs by AlphaLISA assay; format: functional, cell-based; conditions: dose 30.0 µmol/L, time 27.0 hrs
[3] = tested on: BV-2; test: Antiinflammatory activity in C57BL/6 mouse microglial BV-2 cells assessed as reduction in LPS-induced TNF-alpha release at 30 umol/L pretreated for 3 hrs followed by LPS stimulation and measured after 6 hrs by AlphaLISA assay; format: functional; conditions: C57BL/6, BV-2, 9 h, dose 30 µmol/L
[4] = tested on: BV-2; test: Antiinflammatory activity in C57BL/6 mouse microglial BV-2 cells assessed as reduction in LPS-induced IL-6 release at 30 umol/L pretreated for 3 hrs followed by LPS stimulation and measured after 24 hrs by AlphaLISA assay; format: functional; conditions: C57BL/6, BV-2, 27 h, dose 30 µmol/L
[5] = tested on: BV-2; test: Antiinflammatory activity in C57BL/6 mouse microglial BV-2 cells assessed as reduction in LPS induced IL-6 mRNA expression level at 30 umol/L pretreated for 3 hrs followed by LPS stimulation and measured after 24 hrs by qRT-PCR analysis; format: functional, cell-based; conditions: dose 30.0 µmol/L, time 27.0 hrs
[6] = tested on: BV-2; test: Antiinflammatory activity against LPS-stimulated C57BL/6 mouse microglial BV-2 cells assessed as reduction in cellular content of IL-6 level at 30 umol/L pretreated for 3 hrs followed by LPS stimulation and measured after 6 hrs by AlphaLISA assay; format: functional, cell-based; conditions: dose 30.0 µmol/L, time 9.0 hrs
[7] = tested on: BV-2; test: Antiinflammatory activity in C57BL/6 mouse microglial BV-2 cells assessed as reduction in LPS induced IL-1 beta mRNA expression level at 30 umol/L pretreated for 3 hrs followed by LPS stimulation and measured after 24 hrs by qRT-PCR analysis; format: functional, cell-based; conditions: dose 30.0 µmol/L, time 27.0 hrs
[8] = tested on: BV-2; test: Antiinflammatory activity in C57BL/6 mouse microglial BV-2 cells assessed as reduction in LPS-induced IL-6 release at 30 umol/L pretreated for 3 hrs followed by LPS stimulation and measured after 6 hrs by AlphaLISA assay; format: functional; conditions: C57BL/6, BV-2, 9 h, dose 30 µmol/L
[9] = tested on: BV-2; test: Antiinflammatory activity in C57BL/6 mouse microglial BV-2 cells assessed as reduction in LPS-induced TNF-alpha release at 30 umol/L pretreated for 3 hrs followed by LPS stimulation and measured after 24 hrs by AlphaLISA assay; format: functional; conditions: C57BL/6, BV-2, 27 h, dose 30 µmol/L
[10] = tested on: BV-2; test: Antiinflammatory activity against LPS-stimulated C57BL/6 mouse microglial BV-2 cells assessed as reduction in cellular content of TNF-alpha level at 30 umol/L pretreated for 3 hrs followed by LPS stimulation and measured after 24 hrs by AlphaLISA assay; format: functional, cell-based; conditions: dose 30.0 µmol/L, time 27.0 hrs
[11] = tested on: BV-2; test: Antiinflammatory activity against LPS-stimulated C57BL/6 mouse microglial BV-2 cells assessed as reduction in cellular content of IL-6 level at 30 umol/L pretreated for 3 hrs followed by LPS stimulation and measured after 24 hrs by AlphaLISA assay; format: functional, cell-based; conditions: dose 30.0 µmol/L, time 27.0 hrs

## CCC(O)/C=C/C=C\C=C\[C@H](O)CCCCCCCC(=O)O (mixture of isomers)
[1]
  Activity: Active
[2]
  Activity: Active
[3]
  inhibition at 30 µM: 14.1%
[4]
  inhibition at 30 µM: 30.5%
[5]
  Activity: Active
[6]
  Activity: Active
[7]
  Activity: Active
[8]
  inhibition at 30 µM: 20.8%
[9]
  inhibition at 30 µM: 22.7%
[10]
  Activity: Active
[11]
  Activity: Active
